As a reminder, the solubility is the dissolved amount per volume that the medium holds.

Data on two compounds can be found in patent US20030064941A1, “Avermectin and praziquantel combination therapy” (priority 2001, published 2003).

In brackets after ≈: the same amount, converted by molar mass. Several values for one entry are separate records, joined by “and”; a condition that tells them apart may be missing. Equal values may be shown once. Read-outs that look alike come from different tables or passages of the source. Bounds are passed on as bounds.

One series relates to Taenia taeniaeformis. As to conditions: cats, experimental immature infections; cited from earlier work.
The next series has as its system Dipylidium spp. Description: Topical co-formulation efficacy against natural tapeworm infections in cats (post mortem counts). The format is in vivo. As to conditions: single topical dose, 30 days after treatment. On the procedure:
(§1) […] Cats harbouring natural tapeworm infections were used, and randomized to treatment based on pre-trial infections. Animals were killed 30 days after treatment, and post mortem tapeworm counts were conducted.

A further series has as its system Taenia spp. The series is described as above. The format is in vivo. As to conditions: Trial "B", single topical dose, 30 days after treatment. On the procedure:
as §1

For series [1] the following is noted: cats, 3× dosage levels (oral, subcutaneous, intramuscular) during reproduction; cited from earlier work.
The nature of another series: physchem. As to conditions: 30 °C, organic solvent or mixture, thermodynamic from solid, solubility (based on mean values).
The conditions of series [2]: for Concentration (mg per g) / Concentration (mg per ml): selamectin added at 120 mg per ml, 30° C.
Method: (§2) To achieve this a series of solutions of varying IPA/DPGMME ratio were prepared. To help minimize any solubility issues, which could arise due to the presence of selamectin in a formulation, a constant amount of selamectin was added to each solution. After achieving saturated solubility in these solutions and following filtration to remove excess undissolved praziquantel, the level of praziquantel (and selamectin) in solution was determined by HPLC.
(§3) A series of IPA/DPGMME mixtures were prepared in duplicate as outlined in Table 1. To these were added a fixed amount of selamectin to provide a constant concentration of 120 mg per ml, i.e., the maximum selamectin concentration found in Stronghold™. After preparation these solutions were placed at 30° C. and rolled continuously for 48 hours.
(§4) Praziquantel was analysed using an gradient HPLC method modified from that developed for selamectin. […] This same method was also used to check on the selamectin content in these same solutions.
(§5) The solubility of praziquantel and selamectin in the IPA/DPGMME solutions was calculated as both mg per g and mg per ml. The mass of a 1 ml solution taken for analysis was also measured so that an approximate density could be calculated.
Setting [3] is: Trial "A", selamectin 8 mg/kg and/or praziquantel 1 mg/kg.
[4] abbreviates: Trial "B", praziquantel 0.5 mg/kg, alone or with selamectin 8 mg/kg.
Setting [5] is: Trial "B", selamectin 8 mg/kg and/or praziquantel 1 mg/kg.
The mark [6] stands for this setting: praziquantel 0.5 mg/kg, alone or with selamectin 8 mg/kg.
Where [7] appears, read: selamectin 8 mg/kg and/or praziquantel 1 mg/kg.
[8] abbreviates: solution 2A: IPA 75 / DPGMME 25 % V/V.
[9] abbreviates: solutions 1A/1B: IPA 100 / DPGMME 0 % V/V.
[10] abbreviates: solutions 3A/3B: IPA 50 / DPGMME 50 % V/V.
[11] abbreviates: solutions 4A/4B: IPA 25 / DPGMME 75 % V/V.
Where [12] appears, read: solutions 5A/5B: IPA 0 / DPGMME 100 % V/V.

Method for physchem: as §2, §3, §4, §5

As to `O=C(C1CCCCC1)N1CC(=O)N2CCc3ccccc3C2C1` (stereo not shown) [Praziquantel, 2-(cyclohexylcarbonyl)-1,2,3,6,7-11b-hexahydro-4H-pyraz-ino[2,1-a]isoquinolin-4-one], the “elimination of experimental T. taeniaeformis infections as young as seven (7) days” value in the series on Taenia taeniaeformis is listed as 100%. Also, the “% Efficacy (Dipylidium)” value was 74% in the series with Dipylidium spp (setting [3]), 16% in the series on Dipylidium spp (setting [4]) and 89% with Dipylidium spp (setting [5]). Besides, in the series on Dipylidium spp (setting [3]), the “Mean Dipylidium post mortem count (n = 4 / gp)” value was determined as 3.25. The “Mean Dipylidium post mortem count (n = 5 / gp)” value in the series on Dipylidium spp (setting [4]) is listed as 7.6; with Dipylidium spp (setting [5]) it was 1. For the same compound, the “% Efficacy (Taenia)” value with Taenia spp (setting [6]) was found to be 100%; in the series on Taenia spp (setting [7]), 72%. The “Mean Taenia post mortem count (n = 5 / gp)” value in the series with Taenia spp (setting [6]) worked out at 0; in the series with Taenia spp (setting [7]), 1.2. The “effects on fertility, conception, fetal development or pregnancy” value in series [1] is on record as “lack of effects on fertility, conception, fetal development or pregnancy”. Moreover, in the series “physchem”, the solubility at 48 h was found to be 67 mg/mL (≈ 214 mM).

In the case of `CO[C@H]1C[C@H](O[C@@H]2/C(C)=C/C[C@@H]3C[C@@H](C[C@]4(CC[C@H](C)[C@@H](C5CCCCC5)O4)O3)OC(=O)[C@@H]3C=C(C)/C(=N/O)[C@H]4OC/C(=C\C=C\[C@@H]2C)[C@]43O)O[C@@H](C)[C@@H]1O` [Selamectin, 5-oximino-22,23-dihydro-25-cyclohexylayermectin B1], the “solubility as the IPA concentration reduces” value in series [2] (IPA/DPGMME solutions, all ratios) was ≥ 100 mg/g. Also, the “Concentration (mg per g)” value in series [2] (setting [8]) is 118 mg per g; in series [2] (setting [9]), 123 mg per g; in series [2] (setting [10]), 113 mg per g; in series [2] (setting [11]), 113 mg per g and 108 mg per g; in series [2] (setting [12]) it was 104 mg per g and 103 mg per g. The “Concentration (mg per ml)” value is 103 mg per ml in series [2] (setting [8]); 103 mg per ml in series [2] (setting [9]); 103 mg per ml in series [2] (setting [10]); 107 mg per ml and 103 mg per ml in series [2] (setting [11]); 103 mg per ml and 102 mg per ml in series [2] (setting [12]). Besides, in the series on Dipylidium spp (setting [3]), the “% Efficacy (Dipylidium)” value turned out to be 40%. Also, the “Mean Dipylidium post mortem count (n = 4 / gp)” value in the series with Dipylidium spp (setting [3]) amounted to 7.2. Moreover, in the series with Dipylidium spp (setting [5]), the “Mean Dipylidium post mortem count (n = 5 / gp)” value is recorded as “No infection”. The “Mean Taenia post mortem count (n = 5 / gp)” value in the series on Taenia spp (setting [7]) is given as “No infection”.
